The subject of assay [1] is CXCR4 dependent primary and lab-adapted HIV viruses. To be noted: cited from earlier work.
A further assay has as its system CCR5-tropic strains. Particulars: cited from earlier work.
Another assay addresses T1, CCCKR5 (Homo sapiens, UniProt P51681).
T1 construct: expressed in transfected cells; host or cells: CHO-K1 (stably transfected)
Particulars: transfected CHO-K1 cells; cited from earlier work.

Assay [2] relates to env-mediated cell-cell fusion. Particulars: cited from earlier work.
Assay [3] has as its system primary, nonsyncytium-inducing (NSI) HIV-1 strains. Particulars: primary NSI HIV-1 strains; cited from earlier work.
In another assay the test system is primary HIV isolates. Particulars: cited from earlier work.
The target in assay [4] is T2, CCR5 (Homo sapiens, UniProt P51681).
T2 construct: antagonist of CCR5 function in monocytes; endogenous in cells; host or cells: monocytes
As to the kind of experiment: Dissociation constant of the CCR5/gp120 interaction, applicant's work with recombinant proteins. It counts as binding.

Assay [5] deals with T2, CCR5. Particulars: described by others in model systems; read-out: dissociation constant (Kd) of the interaction of CCR5 with gp120; cited from earlier work.

Read-outs that look alike come from different tables or passages of the source.

As to `c1cc(CN2CCCNCCNCCCNCC2)ccc1CN1CCCNCCNCCCNCC1` [AMD3100], the “inhibition of infection of susceptible cultures” value in assay [1] is given as “inhibit infection”.

Turning to `Cc1ccc(-c2ccc3c(c2)C=C(C(=O)Nc2ccc(C[N+](C)(C)C4CCOCC4)cc2)CCC3)cc1.[Cl-]` [TAK 779], the “block of entry of CCR5-tropic strains” value with CCR5-tropic strains is listed as “blocks entry”.

As for “MIP-1-α: macrophage inflammatory protein, β-chemokine ligand of CCR5”, the “agonist activity at CCCKR5” value with CCCKR5 was “most potent agonist”. The “block of env-mediated cell-cell fusion” value in assay [2] is reported as “block env-mediated cell-cell fusion”. In addition, in assay [3], the “inhibition of infection of CD4(+) cells at the virus entry stage” value is reported as “inhibit infection”. The “suppression of replication of primary HIV isolates” value (“suppression” for short) in the assay on primary HIV isolates is “suppress replication”.

“RANTES: protein which is regulated upon activation and is normal T-cell expressed and secreted”: in the assay with CCCKR5, the “agonist activity at CCCKR5” value is given as “active at physiologic concentrations”. Moreover, the “block of env-mediated cell-cell fusion” value in assay [2] is recorded as “block env-mediated cell-cell fusion”. For the same molecule, the “inhibition of infection of CD4(+) cells at the virus entry stage” value in assay [3] is given as “inhibit infection”. Besides, the “suppression” value in the assay on primary HIV isolates was “suppress replication”.

In the case of “SDF-1: chemokine shown to suppress replication of primary HIV isolates”, the “suppression” value with primary HIV isolates was “suppress replication”.

What is called Kd is the constant that tells how readily two partners part at equilibrium. As to “gp120: envelope protein of HIV that is required for viral entry into the target cells”, the figures for the Kd with CCR5 [4] and in the assay with CCR5 [5] were 100 to 1000 nM and around 1 nM, respectively.

Values taken from US20010039026A1, “Assay method” (priority 2000, published 2001).
